Data as given in patent publication US20220265646A1, “PIEZO AGONISTS FOR PREVENTING OR REVERTING ABNORMAL AMYLOID DEPOSITION” (ITÄ-SUOMEN YLIOPISTO, priority 2019, published 2022).

Legend:
[1] = biological target: T1, native Piezo1Rs (Homo sapiens, UniProt Q92508); experiment: Calcium imaging of Yoda1-evoked Ca2+ influx in hiPSC-derived microglia; type: cell-based; settings: 50 μM GdCI in BS pre-incubation
T1 construct: endogenous in cells; host or cells: human iPSC-derived microglia
Method: (§1) To study the calcium influx evoked by native Piezo1 Rs expressed in microglia cells the present inventors used short Yoda1 applications (2 s, 50 μM if not otherwise specified). For this purpose, human IPSO derived microglia cells and SV-40 (immortalized human microglia) cells were seeded on 7 mm cover slips 1 day prior to the imaging experiment. Cells were loaded with the calcium-sensitive fluorescent dye Fluo-4AM (5 μM) for 30 min at 37° C. Followed by wash-incubation for 15 min in Ab 20 μM, 50 μM GdCI and basic solution (BS) as a control at 37° C. The basic solution containing the following (BS, in mM): 2.5 KCl, 152 NaCl, 10 glucose, 2 CaCl2, and 10 HEPES at pH 7.4. Fluorescence was visualized using monochromatic light source (TILL Photonics GmbH) using Ex/Im 494/[…] and a CCD camera (SensiCam). Chemicals were applied using a fast perfusion system (RSC-200, BioLogic Science). To quantify the difference in the amplitude of calcium transients, the ratio values were normalized by subtracting a baseline and further divided by the amplitude of the calcium transient to the 2 sec application of the ionomycin. Data were pre-analyzed offline using the FEI offline analysis (TILL Photonics), and further analysis was automatized using MatLab. Quantitative data were expressed as means±SEM unless otherwise stated. Number of experiments is indicated by n. Significance assessed with the ANOVA test or Mann-Whitney t test for non-parametric data. Statistically significant differences were set at*p<0.05 and **p<0.01.
Differentiation of microglia. Differentiation of microglia was carried out as previously described with minor modifications (Abud et al., 2017). Shortly, on DO, iPSCs were dissociated to single cells with 0.5 mM EDTA or Accutase and were replated at a density of 6-,000-16,000 cells/cm2 on Matrigel in E8, 0.5% penicillin/streptomycin (P/S, 50 IU/50 […]), 5 ng/ml BMP4, 25 ng/ml activin a (both from Peprotech or Miltenyi Biotec), 1 μM CHIR 99021 (Axon or Stem Cell Technologies) and 10 μM Y-27632 to induce mesodermal differentiation. […]

[2] = biological target: T2, Piezo1Rs (Homo sapiens, UniProt Q92508); experiment: Calcium imaging of Yoda1-evoked Ca2+ transients in SV-40 immortalized human microglia cell line; type: cell-based; settings: SV-40 cells, n=13, p=0.00009
T2 construct: SV-40 immortalized human microglia cell line which endogenously express Piezo-1 and Piezo2Rs was used; endogenous in cells; host or cells: SV-40 immortalized human microglia cell line
T2 sequence (Q92508 whole entry): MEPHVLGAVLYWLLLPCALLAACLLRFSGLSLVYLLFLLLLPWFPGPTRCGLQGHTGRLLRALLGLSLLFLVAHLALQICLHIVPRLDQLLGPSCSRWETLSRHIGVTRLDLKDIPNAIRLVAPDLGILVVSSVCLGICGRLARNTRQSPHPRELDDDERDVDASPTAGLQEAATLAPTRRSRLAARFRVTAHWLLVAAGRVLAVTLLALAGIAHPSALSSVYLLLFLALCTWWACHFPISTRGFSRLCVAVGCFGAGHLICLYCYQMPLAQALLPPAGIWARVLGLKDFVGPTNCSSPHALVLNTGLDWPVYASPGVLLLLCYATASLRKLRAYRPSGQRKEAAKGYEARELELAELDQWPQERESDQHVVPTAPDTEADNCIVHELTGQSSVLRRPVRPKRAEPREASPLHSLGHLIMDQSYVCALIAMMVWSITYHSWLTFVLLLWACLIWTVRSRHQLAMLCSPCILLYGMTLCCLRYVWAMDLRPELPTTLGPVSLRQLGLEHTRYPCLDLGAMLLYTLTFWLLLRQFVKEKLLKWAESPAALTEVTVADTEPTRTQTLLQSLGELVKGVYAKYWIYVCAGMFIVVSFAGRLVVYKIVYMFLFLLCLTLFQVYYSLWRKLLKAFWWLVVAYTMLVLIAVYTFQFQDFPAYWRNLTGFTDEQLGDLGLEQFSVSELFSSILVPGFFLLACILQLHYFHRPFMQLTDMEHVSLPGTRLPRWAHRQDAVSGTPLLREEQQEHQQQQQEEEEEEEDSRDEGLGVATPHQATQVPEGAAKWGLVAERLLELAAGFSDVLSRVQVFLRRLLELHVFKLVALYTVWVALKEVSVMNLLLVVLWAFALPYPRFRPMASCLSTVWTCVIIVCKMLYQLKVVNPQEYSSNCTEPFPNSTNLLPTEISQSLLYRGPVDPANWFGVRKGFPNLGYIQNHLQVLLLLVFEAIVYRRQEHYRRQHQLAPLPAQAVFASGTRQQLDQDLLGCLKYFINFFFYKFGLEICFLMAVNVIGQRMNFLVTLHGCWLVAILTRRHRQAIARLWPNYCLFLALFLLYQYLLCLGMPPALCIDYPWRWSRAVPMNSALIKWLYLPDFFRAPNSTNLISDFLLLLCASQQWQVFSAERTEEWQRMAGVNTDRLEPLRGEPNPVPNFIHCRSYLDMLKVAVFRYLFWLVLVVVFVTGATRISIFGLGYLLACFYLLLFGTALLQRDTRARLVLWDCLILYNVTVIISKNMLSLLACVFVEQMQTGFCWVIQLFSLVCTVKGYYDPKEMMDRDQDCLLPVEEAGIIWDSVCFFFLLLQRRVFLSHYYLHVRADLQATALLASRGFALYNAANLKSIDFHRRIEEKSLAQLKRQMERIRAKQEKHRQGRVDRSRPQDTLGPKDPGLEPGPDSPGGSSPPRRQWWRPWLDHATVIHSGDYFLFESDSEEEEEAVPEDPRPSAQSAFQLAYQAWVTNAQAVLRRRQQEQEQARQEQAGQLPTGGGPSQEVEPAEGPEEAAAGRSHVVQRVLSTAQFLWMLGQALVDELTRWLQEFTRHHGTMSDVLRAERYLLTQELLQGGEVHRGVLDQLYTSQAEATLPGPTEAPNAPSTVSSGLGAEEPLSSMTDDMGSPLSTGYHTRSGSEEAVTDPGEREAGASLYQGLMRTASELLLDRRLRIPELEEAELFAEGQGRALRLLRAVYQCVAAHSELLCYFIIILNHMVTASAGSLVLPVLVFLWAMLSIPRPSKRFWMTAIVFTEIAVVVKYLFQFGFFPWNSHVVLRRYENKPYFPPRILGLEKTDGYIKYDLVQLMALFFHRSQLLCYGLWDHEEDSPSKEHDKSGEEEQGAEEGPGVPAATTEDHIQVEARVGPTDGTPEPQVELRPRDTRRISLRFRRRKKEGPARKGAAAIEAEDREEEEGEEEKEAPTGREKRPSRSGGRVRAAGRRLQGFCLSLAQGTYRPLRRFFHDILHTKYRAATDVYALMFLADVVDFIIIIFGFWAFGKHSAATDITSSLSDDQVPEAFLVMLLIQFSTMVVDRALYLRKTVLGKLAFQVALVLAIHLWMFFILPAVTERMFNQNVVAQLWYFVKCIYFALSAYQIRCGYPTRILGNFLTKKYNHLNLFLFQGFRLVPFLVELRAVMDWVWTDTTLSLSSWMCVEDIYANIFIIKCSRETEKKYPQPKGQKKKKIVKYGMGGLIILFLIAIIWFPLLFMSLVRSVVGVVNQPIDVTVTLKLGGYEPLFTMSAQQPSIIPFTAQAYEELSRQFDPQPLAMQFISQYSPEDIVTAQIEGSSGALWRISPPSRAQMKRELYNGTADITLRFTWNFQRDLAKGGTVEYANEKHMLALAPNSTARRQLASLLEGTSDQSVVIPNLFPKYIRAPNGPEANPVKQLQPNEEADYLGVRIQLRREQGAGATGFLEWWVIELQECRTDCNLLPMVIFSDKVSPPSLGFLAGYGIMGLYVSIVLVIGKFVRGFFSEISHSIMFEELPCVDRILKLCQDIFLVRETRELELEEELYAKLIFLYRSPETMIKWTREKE
Method: as §1, with “Chemicals were applied using a fast perfusion system (RSC-200, BioLogic Science).” left out, “Number of experiments is indicated by n.” left out, “Statistically significant differences were set at*p<0.05 and **p<0.01.” left out

T1 sequence (Q92508 whole entry): as above

[Cl][Gd]([Cl])[Cl] [GdCI, Gadolinium chloride]
Yoda1-activated Ca2+ transients after pre-incubation with GdCI ([1]; 50 μM Yoda1 2 s, n=5, p=0.0073): 0.10±0.1 | inhibition of Yoda1-activated Ca2+ transients ([1]; hiPSC microglia): 90% | Yoda1 activated Ca2+ transients after pre-incubation of GdCI [2]: 0.17±0.04
